From patent US9296693B2, “Acyl piperidine inhibitors of soluble epoxide hydrolase” (The Regents of the University of California, priority 2010, dated 2016)
Values joined by “and” are separate entries in the source; they are usually repeats but may differ in a detail not shown here. Identical values can stand only once.

Key:
[1] = target: murine sEH (Mus musculus (Mouse), UniProt P34914); assay: fluorescent based IC50 assay (CMNPC substrate), recombinant murine sEH; type: biochemical; settings: homogenous recombinant murine sEH 1 nM, CMNPC 5 μM, pH 7.0, 30° C., average of three replicates
Sequence of murine sEH (P34914 whole entry): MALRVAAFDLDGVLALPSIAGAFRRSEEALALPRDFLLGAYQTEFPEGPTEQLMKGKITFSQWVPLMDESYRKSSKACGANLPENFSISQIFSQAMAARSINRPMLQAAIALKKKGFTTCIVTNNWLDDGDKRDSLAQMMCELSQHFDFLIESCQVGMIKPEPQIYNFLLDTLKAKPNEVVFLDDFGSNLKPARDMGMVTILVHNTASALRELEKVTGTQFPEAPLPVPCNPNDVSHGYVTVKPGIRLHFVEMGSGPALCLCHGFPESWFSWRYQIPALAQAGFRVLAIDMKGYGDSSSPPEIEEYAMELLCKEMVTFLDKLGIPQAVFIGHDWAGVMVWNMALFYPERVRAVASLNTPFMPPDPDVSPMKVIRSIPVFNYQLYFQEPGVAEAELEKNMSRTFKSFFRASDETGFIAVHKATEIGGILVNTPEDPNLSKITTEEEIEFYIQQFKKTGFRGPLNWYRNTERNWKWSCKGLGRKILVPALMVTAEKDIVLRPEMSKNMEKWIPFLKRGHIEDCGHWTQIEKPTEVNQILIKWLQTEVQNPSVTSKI

[2] = Log P determination by HPLC method (OECD guideline 117); type: physicochemical; settings: octanol/water; read-out: log P (±0.5)
Method: Log P and purity analyses were performed using a Hewlett Packard 1100 HPLC equipped with a diode array detector. A Phenomenex Luna 150 mm×4.6 mm, 5 μm, C-18 column was used for all HPLC analyses.

[3] = target: Human sEH (Homo sapiens (Human), UniProt P34913); assay: fluorescent based IC50 assay (CMNPC substrate), recombinant human sEH; settings: read-out: IC50 (nM) Human; homogenous recombinant human sEH 1 nM, CMNPC 5 μM, pH 7.0, 30° C., average of three replicates;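 note: enzyme preincubated with inhibitor for 5 min before adding substrate, in 25 mM Bis-Tris/HCl buffer supplemented with 0.1 mg/mL BSA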
Sequence of Human sEH (P34913 whole entry): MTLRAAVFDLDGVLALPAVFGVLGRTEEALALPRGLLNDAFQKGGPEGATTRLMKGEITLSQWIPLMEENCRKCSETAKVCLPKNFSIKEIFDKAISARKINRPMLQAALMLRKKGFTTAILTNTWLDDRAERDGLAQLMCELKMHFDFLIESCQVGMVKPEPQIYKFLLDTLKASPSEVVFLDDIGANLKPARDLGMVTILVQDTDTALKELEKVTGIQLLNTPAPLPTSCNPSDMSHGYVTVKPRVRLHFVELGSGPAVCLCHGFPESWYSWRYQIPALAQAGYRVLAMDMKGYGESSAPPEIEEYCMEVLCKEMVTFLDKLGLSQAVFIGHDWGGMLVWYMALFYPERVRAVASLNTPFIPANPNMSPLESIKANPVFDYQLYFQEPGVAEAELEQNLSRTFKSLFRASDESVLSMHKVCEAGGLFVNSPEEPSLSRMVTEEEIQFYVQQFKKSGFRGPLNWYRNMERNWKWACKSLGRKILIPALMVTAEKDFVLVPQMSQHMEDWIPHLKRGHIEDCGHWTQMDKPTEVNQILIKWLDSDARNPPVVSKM

[4] = log P by shake flask method (OECD guideline 107); type: physicochemical
[5] = Pharmacokinetic screening of selected haloalkyl-phenyl ureas, blood profiles; type: in vivo; settings: whole blood

IC50 [1]	chromatographic logP [2]	IC50 [3]	log P [4]	SMILES	AUC [5]	Cmax [5]	Tmax [5]	half-life [5]
> 5000 nM and 12000 nM	< 0	3800 nM	–	CCC(=O)N1CCC(NC(=O)Nc2cccnc2)CC1 [Compound 9, 1-(1-Propionylpiperidin-4-yl)-3-(pyridin-3-yl)urea]	–	–	–	–
110 nM	–	79 nM	1.9	CCC(=O)N1CCC(NC(=O)Nc2ccc(F)cc2)CC1 [Compound 24, 1-(4-Fluorophenyl)-3-(1-propionylpiperidin-4-yl)urea]	–	–	–	–
2.7 nM	–	0.5 nM	2.3	O=C(Nc1ccc(OC(F)(F)F)cc1)NC1CCN(C(=O)c2cc(O)c(O)c(O)c2)CC1 [Compound 54, 1-(4-(Trifluoromethoxy)phenyl)-3-(1-(3,4,5-trihydroxybenzoyl)piperidin-4-yl)urea]	–	–	–	–
–	–	–	–	CCCCS(=O)(=O)N1CCC(NC(=O)Nc2ccc(C(F)(F)F)cc2)CC1 [Compound 69, 1-(1-(butylsulfonyl)piperidin-4-yl)-3-(4-(trifluoromethyl)phenyl)urea]	15.5 µM·h	1.7 µM	1 h	4.5 h
–	–	–	–	O=C(Nc1ccc(C(F)(F)F)cc1)NC1CCN(S(=O)(=O)C2CC2)CC1 [Compound 70, 1-(1-(cyclopropylsulfonyl)piperidin-4-yl)-3-(4-(trifluoromethyl)phenyl)urea]	167 µM·h	10.9 µM	4 h	11.9 h
